A short description of data set [1]: Particle size of micelles by dynamic light scattering (DLS). It counts as physicochemical. The note with it: for Diameter of micelles: comparative study, dynamic light scattering. From the text: Determining Particle Size of Teico, Teico-Ptx and Teico-PTX-Alb Micelles by Dynamic Light Scattering (DLS)
The conditions of data set [2]: in vivo; cited from earlier work.
The conditions of data set [3]: cited from earlier work; for Micelles stable (Daptomycin: and biologically active): at 25° C.
The conditions of data set [4]: cited from earlier work.
Data set [5] in a line: Loading of Ptx into antibiotic micelles, quantified by HPLC. It counts as physicochemical. The note with it: for Maximum load / loading capacity: Ptx or Dtx in micelles; for Ptx loaded (%): 30 minutes, Teicoplanina 100 mg/ml, Ptx added 5 mg; for Ptx in Teicoplanin micelles: Teicoplanin 200 mg/ml. As for the experimental part:
Samples with 400 mg of teicoplanin were dissolved in 2 ml of distilled water at pH 5.5 or in 2 ml of phosphate buffer solution of 20 mM at pH 6, with gentle stirring in order to obtain full dissolution. The solution was allowed to stand for at least 4 hours at 4° C. A 0.5 ml aliquot was incubated with 25 μl of DMSO having increasing amounts of Paclitaxel (Ptx) in order to reach the following final concentrations: 1 mg/ml, 5 mg/ml, 10 mg/ml and 20 mg/ml.
The solutions were incubated at 25° C. for at least 4 hours and then centrifuged at 15,000×g for 10 minutes to remove the potential insoluble Ptx that had not encapsulated in teicoplanin micelles. Finally, in order to remove the remaining DMSO, the samples were dialyzed with a phosphate buffer solution of 20 mM at pH 6 for 12 hours. The quantification of Ptx introduced into teicoplanin micelles was carried out by using HPLC.
Ptx is loaded into teicoplanin micelles at a concentration of 5 mg/ml, according to the description of Example 1, but for 30 minutes at 4° C., 25° C. and 37° C. After incubation, the samples were centrifuged at 15,000×g for 10 minutes and they were also dialyzed in distilled water for 12 hours at 4° C. Finally, the amount of Ptx introduced into the teicoplanin micelle in a soluble way was quantified by HPLC. […] The load in all conditions was higher than 90%.

For data set [6] the following is noted: cited from earlier work. The source holds these as a separate data set.
Data set [7] can be described thus: Solubility in aqueous medium. It counts as physicochemical.
For a further data set, the system named is HEP-2. Description: In vitro cytotoxic activity in tumor cell culture (MTT test). It counts as cell-based. To be noted: for Cell Death after 24 Hours of Treatment: HEP-2, MTT. As for the experimental part:
Tumor cells, such as HEP-2, were incubated in MEM medium having fetal bovine serum by 2% (Natocor-Villa Carlos Paz—Cordoba—Argentina) in a CO2 incubator by 5% CO2, at confluence. Different concentrations of the compositions mentioned below were added to the cell culture: […]

The nature of data set [8]: Loading of Ptx into antibiotic micelles, quantified by HPLC. It counts as physicochemical. To be noted: Teicoplanin 200 mg/ml; Ptx concentration 2.5 mg/ml.
Data set [9] in a line: Critical micelle concentration (CMC). It counts as physicochemical.
A short description of data set [10]: Dialysis experiments on Teicoplanin micelles. It counts as physicochemical. To be noted: after 48 hours of dialysis. As for the experimental part:
In fact, in dialysis experiments, it was shown a loss of about 25% of molecules of Teicoplanin after 48 hours of dialysis, while for the Teico-Ptx complex is was shown a loss of about 5 to 8%.

Where [11] appears, read: aqueous medium with teicoplanin micelles, aqueous with cosolvent or surfactant or cyclodextrin.
The mark [12] stands for this setting: aqueous medium without micelles.

Converted amounts (≈) assume the structure as drawn. “And” between values parts separate entries of the source, which are not always exact repeats. Equal entries are not always repeated. Where two headings read alike, the source gives them in different places.

As for `CCCCCCCCCC(=O)N[C@@H](Cc1c[nH]c2ccccc12)C(=O)N[C@H](CC(N)=O)C(=O)N[C@@H](CC(=O)O)C(=O)N[C@@H]1C(=O)NCC(=O)N[C@@H](CCCN)C(=O)N[C@@H](CC(=O)O)C(=O)N[C@H](C)C(=O)N[C@@H](CC(=O)O)C(=O)NCC(=O)N[C@H](CO)C(=O)N[C@@H]([C@H](C)CC(=O)O)C(=O)N[C@@H](CC(=O)c2ccccc2N)C(=O)O[C@@H]1C` [Daptomycin], the Diameter of micelles in data set [1] worked out at 5 nm. The Half life in data set [2] is 7 to 10 h. Besides, the “Micelles stable and biologically active” value in [3] (at 4° C.) was 48 hours. Besides, the “Micelles stable (Daptomycin: and biologically active)” value in [3] is on record as 12 hours. Moreover, the CMC in data set [4] (pH 4, listed as Dapto micelles) is 400 μg/ml and 250 μM. Moreover, the “Concentration at which molecule remains soluble” value in data set [4] (pH 6.5) is 150000 µg/mL. Also, in data set [5], the “Maximum load / loading capacity” value is 5 mg/mL. The Suggested maximum dose in data set [6] (in vivo) is 10 to 12 mg/kg/day.
Regarding `CC(=O)O[C@@]12CO[C@@H]1C[C@H](O)[C@@]1(C)C(=O)[C@H](O)C3=C(C)[C@@H](OC(=O)[C@H](O)[C@@H](NC(=O)OC(C)(C)C)c4ccccc4)C[C@@](O)([C@@H](OC(=O)c4ccccc4)[C@H]21)C3(C)C` [Dtx, Docetaxel], the solubility in [7] (setting [11]) is 10000 µg/mL (≈ 12.4 mM); in data set [7] (setting [12]) it was below 1 µg/mL.
For the compound `CC(=O)O[C@H]1C(=O)[C@@]2(C)[C@H]([C@H](OC(=O)c3ccccc3)[C@]3(O)C[C@H](OC(=O)[C@H](O)[C@@H](NC(=O)c4ccccc4)c4ccccc4)C(C)=C1C3(C)C)[C@]1(OC(C)=O)CO[C@@H]1C[C@@H]2O` [Ptx, Paclitaxel], the “Cell Death after 24 Hours of Treatment” value with HEP-2 (Ptx 5 nM) is listed as 10%; in the data set with HEP-2 (Ptx 10 nM), 25%; in the data set with HEP-2 (Ptx 20 nM), 40%; in the data set with HEP-2 (Ptx 50 nM), 90%. Further, the “Killing of tumor cells” value with HEP-2 (in 24 hours up to a concentration of 50 ng/ml) is “complete killing”. For the same compound, the solubility in [7] (setting [11]) is 10000 µg/mL (≈ 11.7 mM); in data set [7] (setting [12]), below 1 µg/mL.
For Teicoplanin, the “Ptx in Teicoplanin micelles” value in data set [8] stood at 2.5 mg/mL; in [5] (Ptx concentration 1 mg/ml), 1 mg/mL; in data set [5] (Ptx concentration 5 mg/ml) it was 5 mg/mL; in data set [5] (Ptx concentration 10 mg/ml), 10 mg/mL; in data set [5] (Ptx concentration 20 mg/ml), 2 mg/mL. Besides, the “Cell Death after 24 Hours of Treatment” value in the data set with HEP-2 (Teico 5 μM control micelles without Ptx) was 0%. Besides, in the data set with HEP-2 (Teicoplanin by itself), the Effect on cells result is reported as “no effect”. The “Size larger than Dapto and Dapto-Ptx micelles” value in data set [1] is 40%. In data set [1] (DLS, Example 5), the Particle size was found to be 8 nm. Also, the Polydispersity index in [1] (DLS, Example 5) is on record as 0.017. The compound further yielded a Diameter of micelles in data set [1] of 8 nm. Moreover, the Half life in [2] was 70 to 100 h. The Micelles stable in [3] (at 4° C.) was 35 days. Besides, the “Micelles stable (Daptomycin: and biologically active)” value in data set [3] is 48 hours. Moreover, the CMC in data set [9] came to 100 µM. The “Loss of molecules of Teicoplanin” value in [10] is recorded as “about 25%”. In addition, the “Ptx loaded (%)” value amounted to 94% in [5] (4° C.), 96% in [5] (25° C.) and 98% in data set [5] (37° C.). Moreover, the “Load capacity compared with Daptomycin” value in [5] (Dtx or Ptx) was “twice”. Also, the “Maximum load / loading capacity” value in data set [5] is 10 mg/mL; in data set [5] (listed as Teicoplanin micelles), “about 10 mg/ml”. The Ptx load entry in data set [5] (in all conditions (4° C., 25° C. and 37° C.)) is given as “higher than 90%”. Moreover, the Suggested maximum dose in data set [6] (to avoid unwanted side effects or cytotoxicity) is listed as 20 mg/kg/day. Also, the “Interaction with red blood cells (RBCs)” value in the data set on red blood cells (RBCs) was “neither Teicoplanin nor Teico-Ptx complex interact with red blood cells”.

(Values after patent US20180021257A1, “WATER-SOLUBLE PHARMACEUTICAL COMPOSITION COMPRISING AT LEAST ONE THERAPEUTICALLY ACTIVE SUBSTANCE AND AT LEAST ONE SUBSTANCE CAPABLE OF FORMING MICELLES” (CONSEJO NACIONAL DE INVESTIGACIONES CIENTIFICAS Y TECNICAS …, priority 2015, published 2018).)
